Biological target: T1, EP4R (Homo sapiens, UniProt P35408)
T1 construct: Tango fusion cassette (only 'tango' is printed); expressed in transfected cells; host or cells: HTLA cells (tTA-dependent luciferase reporter, β-arrestin2-TEV fusion)
Assay: PRESTO-Tango β-arrestin2 recruitment assay
Type: cell-based
Details: for Ki: PRESTO-Tango Ki* (nM)

[1] = PRESTO-Tango -logIC50, antagonist mode, EC80 of PGE2
[2] = PRESTO-Tango IC50 (nM), antagonist mode, EC80 of PGE2
[3] = calculated using the Cheng Prusoff equation

T1 sequence (P35408 whole entry, the tested form may be a part): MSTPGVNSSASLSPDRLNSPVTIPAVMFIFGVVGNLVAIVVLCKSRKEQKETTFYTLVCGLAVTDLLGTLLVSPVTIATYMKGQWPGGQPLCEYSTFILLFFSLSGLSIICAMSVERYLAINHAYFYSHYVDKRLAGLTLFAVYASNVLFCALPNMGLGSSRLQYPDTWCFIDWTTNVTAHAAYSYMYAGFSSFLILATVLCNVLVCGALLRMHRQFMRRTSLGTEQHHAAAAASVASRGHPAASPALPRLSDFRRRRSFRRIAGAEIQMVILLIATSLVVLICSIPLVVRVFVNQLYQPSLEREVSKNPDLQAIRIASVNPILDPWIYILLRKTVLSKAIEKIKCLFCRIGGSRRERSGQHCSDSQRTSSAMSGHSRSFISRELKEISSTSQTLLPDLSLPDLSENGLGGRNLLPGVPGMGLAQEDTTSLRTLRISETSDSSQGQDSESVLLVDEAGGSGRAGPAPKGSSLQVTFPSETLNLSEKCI

Compound | IC50 [1] [nM] | IC50 [2] [nM] | also measured
O=C(O)C[C@@H]1CC[C@H](NC(=O)c2csc(C3CCCCC3)c2)C1 [Compound 100, OC(=O)C[C@@H]1CC[C@@H](C1)NC(=O)C2=CSC(=C2)C3CCCCC3] | 1820 | 1880 | Ki: 376 nM
COc1cccc(-n2c(C)cc(C(=O)NC3CCCC(C(=O)O)CC3)c2C)c1 (stereo not shown) [Compound 117, COC=1C=CC=C(C1)N2C(C)=CC(C(=O)NC3CCCC(CC3)C(=O)O)=C2C] | 22900 | > 10000 | 
Cc1cc2c(NC3CC4(CCC(C(=O)O)CC4)C3)ncnc2s1 (stereo not shown) [Compound 88, CC1=CC=2C(NC3CC4(C3)CCC(CC4)C(=O)O)=NC=NC2S1] |  |  | IC50 (PRESTO-Tango -logIC50): 708000 nM; IC50 (PRESTO-Tango IC50 (nM)): > 10000 nM
Cc1cc(C(=O)N[C@@H]2CC[C@@H](C(=O)O)CCC2(F)F)c(C)n1-c1cccc(F)c1 [Compound 128, CC1=CC(C(=O)N[C@@H]2CC[C@H](CCC2(F)F)C(=O)O)=C(C)N1C=3C=CC=C(F)C3] | 18200 | > 10000 | 
CC(C)c1ccc2ncnc(NC3CC4(CCC(C(=O)O)CC4)C3)c2c1 (stereo not shown) [Compound 87, CC(C)C=1C=CC=2N=CN=C(NC3CC4(C3)CCC(CC4)C(=O)O)C2C1] | 19500 | > 10000 | 
O=C(N[C@@H]1CC[C@@H](C(=O)O)CCC1(F)F)c1nn(-c2ccccc2)c2c1CCC2 [Compound 125, OC(=O)[C@@H]1CC[C@@H](NC(=O)C2=NN(C=3CCCC23)C=4C=CC=CC4)C(F)(F)CC1] |  | 1640 | Ki [3]: 328 nM
Cc1csc2ncnc(NC3CC4(CCC(C(=O)O)CC4)C3)c12 (stereo not shown) [Compound 86, CC1=CSC=2N=CN=C(NC3CC4(C3)CCC(CC4)C(=O)O)C12] |  | 7960 | Ki [3]: 1590 nM
CN(C(=O)c1nn(-c2ccccc2)c2c1CCC2)C1CCCC(C(=O)O)CC1 (stereo not shown) [Compound 131, CN(C1CCCC(CC1)C(=O)O)C(=O)C2=NN(C=3CCCC23)C=4C=CC=CC4] |  | 1880 | Ki: 376 nM
O=C(NC1CC2(CCC(C(=O)O)CC2)C1)c1csc(C2CCCCC2)c1 (stereo not shown) [Compound 109, OC(=O)C1CCC2(CC(C2)NC(=O)C3=CSC(=C3)C4CCCCC4)CC1] | 10200 | > 10000 | 
CC1CCc2c(sc3ncnc(NC4CC5(CCC(C(=O)O)CC5)C4)c23)C1 (stereo not shown) [Compound 92, CC1CCC2=C(C1)SC=3N=CN=C(NC4CC5(C4)CCC(CC5)C(=O)O)C23] |  | 806 | Ki [3]: 161 nM
O=C(O)C1CCC2(CC1)CC(Nc1ncnc3sc(-c4ccccc4)cc13)C2 (stereo not shown) [Compound 85, OC(=O)C1CCC2(CC(C2)NC=3N=CN=C4SC(=CC34)C=5C=CC=CC5)CC1] | 776000 | > 10000 | 
O=C(N[C@@H]1CC[C@@H](C(=O)O)CCC1(F)F)c1nn(-c2ccccc2F)c2c1CCC2 [Compound 118, OC(=O)[C@@H]1CC[C@@H](NC(=O)C2=NN(C=3CCCC23)C=4C=CC=CC4F)C(F)(F)CC1] |  | 3790 | Ki: 757 nM
Cc1cc(C(=O)N(C)C2CCCC(C(=O)O)CC2)c(C)n1-c1ccccc1 (stereo not shown) [Compound 132, CN(C1CCCC(CC1)C(=O)O)C(=O)C=2C=C(C)N(C2C)C=3C=CC=CC3] | 23400 | > 10000 | 
Cc1cc(C(=O)NC2CCCC(C(=O)O)CC2)c(C)n1-c1ccc(F)cc1 (stereo not shown) [Compound 119, CC1=CC(C(=O)NC2CCCC(CC2)C(=O)O)=C(C)N1C=3C=CC(F)=CC3] | 25900 | > 10000 | 
Cc1cc(C(=O)NC2CCCC(C(=O)O)CC2)c(C)n1-c1ccccc1 (stereo not shown) [Compound 78, CC1=CC(C(=O)NC2CCCC(CC2)C(=O)O)=C(C)N1C=3C=CC=CC3] |  | 7080 | Ki: 1420 nM
Cc1nc(NC2CC3(CCC(C(=O)O)CC3)C2)c2cc(-c3ccccc3)sc2n1 (stereo not shown) [Compound 93, CC=1N=C(NC2CC3(C2)CCC(CC3)C(=O)O)C=4C=C(SC4N1)C=5C=CC=CC5] |  | 7350 | Ki [3]: 1470 nM
O=C(NC1CCCC(C(=O)O)CC1)c1csc(Cc2ccccc2)c1 (stereo not shown) [Compound 107, OC(=O)C1CCCC(CC1)NC(=O)C2=CSC(CC=3C=CC=CC3)=C2] | 22900 | > 10000 | 
O=C(O)C1CCC2(CC1)CC(Nc1ncnc3sc4c(c13)CCC4)C2 (stereo not shown) [Compound 91, OC(=O)C1CCC2(CC(C2)NC=3N=CN=C4SC=5CCCC5C34)CC1] |  | 4030 | Ki: 807 nM
